According to patent US20260078341A1, “TREATMENT OF CANCER USING CHIMERIC ANTIGEN RECEPTOR” (Novartis AG, priority 2014, published 2026):
“Also recorded” adds a separate entry of the source.

Test system: SKOV3
Experiment: SKOV3 ovarian tumor model, C4-27z CAR-T cells plus exogenous cytokines
Type: in vivo, NSG mice
Conditions: for antitumor efficacy of cytokine in combination with CAR-T cell injection: 5 μg daily i.p. for 7 days with 5×10^6 C4-27z CAR-T cells

IL-15: common γ-chain family cytokine, exogenous
antitumor efficacy of cytokine in combination with CAR-T cell injection: best tumor suppression | CD4+ and CD8+ T cells in peripheral blood (15 days after adoptive transfer): Highest numbers of CD4+ and CD8+ T cells | human T cell number in the tumor (73 days after tumor challenge): highest T cell number in the tumor

IL-18: immunostimulatory, proinflammatory cytokine belonging to the IL-1 family
antitumor efficacy of cytokine in combination with CAR-T cell injection: heaviest tumor burden; also recorded: no enhanced effect on antitumor efficacy

IL-21: common γ-chain family cytokine, exogenous
antitumor efficacy of cytokine in combination with CAR-T cell injection: best tumor suppression
